From article PMC4124913 (Bioorganic & medicinal chemistry, 2013)
pIC50: −log10 of the molar value.

Assays:
Bcr-Abl = Bcr-Abl (Homo sapiens, UniProt P00519); assay: Bcr-Abl kinase assay; conditions: for ΔΔGbind (exptl): RT ln [IC50(cmpd)/IC50(11a)], 298 K
[1] = tested on: K562 cells expressing Abl; assay: In vitro radiotracer accumulation, washout and blocking in K562 cells; type: cell-based, human; conditions: cell cultures, excess cold STI-571

Sequence of Bcr-Abl (P00519 whole entry): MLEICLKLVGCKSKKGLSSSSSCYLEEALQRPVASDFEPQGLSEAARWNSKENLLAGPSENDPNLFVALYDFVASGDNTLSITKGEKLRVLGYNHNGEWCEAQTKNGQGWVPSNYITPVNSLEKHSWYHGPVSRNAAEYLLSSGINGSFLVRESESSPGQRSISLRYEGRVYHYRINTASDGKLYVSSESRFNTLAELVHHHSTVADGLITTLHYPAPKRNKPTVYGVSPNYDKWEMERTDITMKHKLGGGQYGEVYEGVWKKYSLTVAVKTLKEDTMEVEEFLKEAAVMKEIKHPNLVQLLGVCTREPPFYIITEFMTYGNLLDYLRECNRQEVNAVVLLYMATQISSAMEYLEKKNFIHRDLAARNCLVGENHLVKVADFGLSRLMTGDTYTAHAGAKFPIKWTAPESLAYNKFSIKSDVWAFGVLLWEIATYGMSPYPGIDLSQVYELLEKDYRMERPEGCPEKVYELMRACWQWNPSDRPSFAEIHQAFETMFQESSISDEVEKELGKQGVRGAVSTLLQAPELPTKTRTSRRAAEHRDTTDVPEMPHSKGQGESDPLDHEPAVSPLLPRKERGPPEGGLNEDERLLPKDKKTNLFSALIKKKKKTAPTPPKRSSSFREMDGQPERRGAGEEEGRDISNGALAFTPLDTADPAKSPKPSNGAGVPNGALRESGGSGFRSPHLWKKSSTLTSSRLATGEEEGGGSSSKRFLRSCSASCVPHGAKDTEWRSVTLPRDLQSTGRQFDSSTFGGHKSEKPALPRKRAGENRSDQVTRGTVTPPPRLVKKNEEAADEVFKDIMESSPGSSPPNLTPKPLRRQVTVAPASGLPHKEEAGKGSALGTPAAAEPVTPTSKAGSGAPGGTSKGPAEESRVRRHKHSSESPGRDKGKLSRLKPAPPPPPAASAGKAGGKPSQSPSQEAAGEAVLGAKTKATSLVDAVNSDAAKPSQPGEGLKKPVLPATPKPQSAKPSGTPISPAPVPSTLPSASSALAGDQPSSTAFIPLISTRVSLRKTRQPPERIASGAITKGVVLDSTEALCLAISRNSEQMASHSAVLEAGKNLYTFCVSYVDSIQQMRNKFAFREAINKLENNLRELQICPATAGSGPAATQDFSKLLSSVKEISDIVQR

| SMILES | ΔΔGbind (exptl) (Bcr-Abl) [kcal/mol] | pIC50 (Bcr-Abl) | binding on addition of excess STI-571 (blocking) [1] |
| --- | --- | --- | --- |
| Cc1ccc(NC(=O)c2ccc(CN3CCN(Cc4ccc(I)cc4)CC3)cc2)cc1Nc1nccc(-c2cccnc2)n1 [Compound 11e] | 1.10 | – | – |
| Cc1ccc(NC(=O)c2ccc(CN3CCN(CCF)CC3)cc2)cc1Nc1nccc(-c2cccnc2)n1 [Compound 11b] | 1.47 | 5.89 | – |
| Cc1ccc(NC(=O)c2ccc(CN3CCN(CCO)CC3)cc2)cc1Nc1nccc(-c2cccnc2)n1 [Compound 11c] | 2.44 | – | – |
| Cc1ccc(NC(=O)c2ccc(CN3CCN(CC[18F])CC3)cc2)cc1Nc1nccc(-c2cccnc2)n1 [Compound 11g] | – | – | diminished as excess STI-571 was added |
